Literature values as cited in US7875460B2, “Method for determining the effectiveness of stabilized chlorine dioxide in a mouth rinse” (priority 2007, dated 2011).

Assays:
[1] = in vivo
bacteria = details: exposures as short as 10 seconds

[O][Cl+][O-] [chlorine dioxide]
decrease in VSCs in expired mouth air [1]: remarkable decrease in VSCs | reduction in bacteria (bacteria): dramatic reduction in bacteria | effects on haematology, blood biochemistry, or organ weights (Sprague-Dawley rats; 0, 2, 4, 6, 12 mg/kg/day (male) and 0, 2, 5, 8, 15 mg/kg/day (female) in drinking-water for 90 days): no toxicologically significant effects | target tissue identified: nasal cavity findings (Sprague-Dawley rats; drinking-water for 90 days): increased incidence of goblet cell hyperplasia, squamous metaplasia, and inflammatory responses | deaths (Sprague-Dawley rats; exposures as high as 11.5 mg/kg/day (male) and 14.9 mg/kg/day (female)): no deaths were reported
